We go through five molecules from publication PMC8369502, “High-Throughput Drug Screening System Based on Human Induced Pluripotent Stem Cell-Derived Atrial Myocytes ∼ A Novel Platform to Detect Cardiac Toxicity for Atrial Arrhythmias” (Frontiers in Pharmacology, 2021).

Structures are written as SMILES. Where “and” joins values, the source holds several entries; their conditions need not be identical. Equal values may be shown once. Entries after “also recorded” stand apart in the source; their conditions may differ.

For series [1], the system named is CT (control hiPS-CMs without RA, ventricular-like). As to the kind of experiment: High-throughput membrane potential recording (FluoVolt, FDSS/μCell) in CT. Type of series: cell-based, human. The conditions noted are these: for Falling Slope / PWD30cF / PWD80cF / Rising Slope: % change from value before compound addition, 10 min after addition (Bay K 8644: 3 min); for beating rate (in words) / falling slope of membrane potential (in words) / rising slope of membrane potential (in words): concentration range as stated in the source. On the procedure:
(§1) Using a high-throughput screening system (FDSS/μCell), we assessed the drug toxicity of several experimental drugs on hiPS-derived atrial myocytes as well as control hiPS-derived cardiomyocytes. Membrane potential was used as one of the parameters during the assessment.
(§2) After purification, hiPS-derived cardiomyocytes were plated in 96-well plates for downstream drug response assessment using FluoVolt™ Membrane Potential Kit. […] The comparison of variance in the response of drug administration in CT and AM was represented by the percentage of changes based on their baseline values respectively.
(§3) FluoVolt™ Membrane Potential Kit (ThermoFisher […], F10488, Massachusetts, United States) was used to measure membrane potentials. The basic procedure was performed in accordance with the manufacturer’s instructions. […] MP were recorded at excitation and emission stages at wavelengths of 470 and 540 nm, respectively. […] Stock solutions of the test compounds were prepared in 100% DMSO, and serially diluted 1/40 into compound plates for testing (0.5% DMSO was the maximum concentration in all wells). The compounds were automatically pipetted from the compound plate, and 12 μL was loaded in the wells already containing the cells with 48 μL of media. Recording data were analyzed using Waveform Analysis of Cardiomyocyte Software (Ver.1.2.1J, Hamamatsu Photonics K.K.). Data values for a well were averaged from waveforms that arose during 30 s. The beat rate (BR; beats per minute), waveform amplitude (AMP), and duration at 30, 50, and 80% of decay (PWD30, PWD 50, and PWD 80, respectively) were used as evaluation parameters. PWDs were corrected using the Fridericia formula. PWD30-80 was calculated as the difference between PWD80 and PWD30. Each parameter was calculated as percentage change (%) from the value before test compound addition.

Series [2] deals with AM (RA-treated hiPS-CMs, atrial-like). As to the kind of experiment: High-throughput membrane potential recording (FluoVolt, FDSS/μCell) in AM. Type of series: cell-based, human. The note with it: for cessation of beating (cases): count of cases; for Rising Slope / Beat Rate / Falling Slope / PWD80cF: % change from value before compound addition, 10 min after addition (Bay K 8644: 3 min); for rising slope of membrane potential (in words) / beating rate (in words) / falling slope of membrane potential (in words): concentration range as stated in the source. The method, then: as §1, §2, §3

In series [3] the test system is cardiac Na+ channel (Nav1.5). The note with it: ref Harmer et al., 2011; read-out: IC50 cardiac Na+ channel (Nav1.5); cited from earlier work.
In series [4] the test system is ventricular myocytes of guinea pigs. Details: method as in Delaunois et al., 2015. The conditions noted are these: 75 μM; ref Delaunois et al., 2015; cited from earlier work.
For series [5], the system named is hiPS-derived cardiomyocytes. As to the kind of experiment: Cardiac differentiation of hiPSCs with RA, immunostaining (cTnT, MLC-2a, MLC-2v). Type of series: cell-based, human. The method, then:
Undifferentiated hiPSCs were maintained in AK02 medium for 2–3 days until 80% confluency was obtained. To obtain highly purified cardiomyocytes, metabolic selection was performed during post-differentiation, from day 15–26. Cardiomyocyte proportion was quantified by immunostaining with cardiac troponin-T (cTnT).
To further evaluate the gene expression of cardiac subtypes in the control hiPS-CMs (CT) and the RA-treated hiPS-CMs (AM), the cells were co-stained with myosin light chain 2a (MLC-2a: atrial isoform) and myosin light chain 2v (MLC-2v: ventricular isoform) (Supplementary Figure 1). […] In AM (MLC-2a 83.4 ± 0.63%), most cTnT-positive cells were co-positive for MLC-2a, however, very few cTnT-positive cells were found co-positive for MLC-2v (MLC-2v 14.0 ± 2.82%) (Figures 1B, C).
The hiPSCs were enzymatically dispersed and maintained until 80% confluence with StemFit® AK02N containing 10 µM Y-27632 (Wako, 036-24023). The next day, the culture medium was changed to StemFit® AK02N without Y-27632, which was maintained until the next passage. hiPSCs were seeded on a dish coated with Geltrex LDEV-Free Reduced Growth Factor (ThermoFisher […]) at 1% concentration in PBS. When the seeded cells reached 80% confluency (day-1), the culture medium was changed to StemFit® AK02N containing Matrigel® (Growth Factor Reduced, Corning, 354,230) at 1% concentration for 24 h. On day0, the culture medium was changed to Medium A (PSC Cardiomyocyte Differentiation Kit, ThermoFisher […]) containing Matrigel for 48 h. On day2, the culture medium was changed to Medium B (PSC Cardiomyocyte Differentiation Kit, ThermoFisher […]) for 48 h. On day4, the culture medium was changed to cardiomyocyte maintenance medium (PSC Cardiomyocyte Differentiation Kit, ThermoFisher […]) supplemented with or without 0.7 μM RA (Sigma Aldrich, R2625) for 72 h. On day 7, the culture medium was changed to cardiomyocyte maintenance medium, and change the medium every 2 days. The cells typically started spontaneous beating around 10 days of initiation of the differentiation protocol. Purification of cardiomyocytes was performed by using a non-glucose medium supplemented with 4 mM lactic acid for 4days/time, performed 2 times (from day 14 to day 18, and from day 21 to day 25), between the 2 times of purifying application, the medium was changed to cardiomyocyte maintenance medium for 72 h (from day 18 to day 21). After purification, the culture was continued in the cardiomyocyte maintenance medium until the functional analysis.
hiPSC-derived cardiomyocytes were fixed with 4% PFA and permeabilized with 0.1% Triton-X in PBS (-) for 15 min at 4°C. […] Fluorescence images were obtained using Operetta high content imaging system (PerkinElmer, Japan) and analyzed using Harmony analysis software (PerkinElmer, Japan).

In general, IC50 refers to the concentration that inhibits the measured activity by half. With `NC(=O)N1c2ccccc2C=Cc2ccccc21` [Carbamazepine], in series [1], the “amplitude of membrane potential (in words)” value is listed as “decrease”, the “concentration at which cessation of beating was elicited” value was “above 30 μM”, the “concentration at which irregular beating or EAD appeared” value is listed as “above 30 μM” and the “membrane potential duration (in words)” value is listed as “shortened”. Also, in series [1], the “Falling Slope” value is on record as “↑”, the PWD30cF result is listed as “↓”, the PWD80cF result is listed as “↓” and the “Rising Slope” value is “↓”. Besides, in series [1], the “beating rate (in words)” value is “decrease”, the “falling slope of membrane potential (in words)” value (“falling slope … (in words)” below) was “increase” and the “rising slope of membrane potential (in words)” value (shortened to “rising slope … (in words)”) is recorded as “decrease”. In addition, in series [1] (30 μM), the “incidence of arrhythmia-like waveforms: arrest” value (“incidence … arrest” below) was 8% and the “incidence of arrhythmia-like waveforms: irregular beat” value (“incidence … irregular beat” below) came out at 25%. In series [1] (100 μM), the “incidence … arrest” value is 92% and the “incidence … irregular beat” value amounted to 8%. Further, in series [1] (100 μM, count of cases), the “cessation of beating (cases)” value is given as 11 of 12. For the same molecule, in series [2], the “other parameters of membrane potential (in words)” value was “no obvious change was observed”, the “Rising Slope” value is “↓” and the “rising slope … (in words)” value is “decrease”. Also, in series [2] (30 μM), the “incidence … arrest” value is 50% and the “cessation of beating (cases)” value is recorded as “half the cases”. In series [2] (100 μM), the “incidence … arrest” value came out at 83% and the “cessation of beating (cases)” value is on record as 5 of 6. Also, the IC50 in series [3] is 152 µM. Besides, in series [4], the APD50 entry is given as “shortening”, the APD90 result is listed as “shortening” and the Vmax entry was “decrease”.
With `Cc1cccc(CCN2CCC(C(=O)c3ccc(NS(C)(=O)=O)cc3)CC2)n1` [E-4031], in series [1], the “PWD30-80 (in words)” value is recorded as “prolonged; also recorded: dose-dependent increases”, the “PWD80cF (in words)” value is on record as “prolonged; also recorded: dose-dependent increases”, the “membrane potential duration (in words)” value is “increase” and the “Falling Slope” value is listed as “↓”. Moreover, in series [1], the PWD30cF entry was “↓”, the PWD80cF result was “↑”, the “Rising Slope” value is reported as “↓” and the “beating rate (in words)” value is listed as “dose-dependent decrease”. For the same molecule, in series [1], the “falling slope … (in words)” value was “dose-dependent decrease” and the “rising slope … (in words)” value is listed as “dose-dependent decrease”. In addition, in series [2], the “PWD30-80 (in words)” value is given as “prolonged; also recorded: dose-dependent increases”, the “PWD80cF (in words)” value is on record as “prolonged; also recorded: dose-dependent increases”, the “membrane potential duration (in words)” value was “increase” and the “Beat Rate” value is “↓”. Further, in series [2], the “Falling Slope” value was “↓”, the PWD80cF result is listed as “↑”, the “Rising Slope” value is “↓” and the “beating rate (in words)” value is given as “dose-dependent decrease”. Moreover, in series [2], the “falling slope … (in words)” value is “dose-dependent decrease” and the “rising slope … (in words)” value is on record as “dose-dependent decrease”.
In the case of `CC(C)NCC(O)COc1cccc2ccccc12` (stereo not drawn) [Propranolol], in series [1], the “PWD30-80 (in words)” value was “prolonged”, the “PWD80cF (in words)” value is “prolonged”, the “concentration at which irregular beating or EAD appeared” value is on record as “above 10 μM” and the “Falling Slope” value is “↓”. Moreover, in series [1], the PWD30cF result is reported as “↓”, the PWD80cF result is given as “↑”, the “Rising Slope” value is given as “↓” and the “beating rate (in words)” value is “dose-dependent decrease”. In series [1], the “falling slope … (in words)” value is listed as “dose-dependent decrease” and the “rising slope … (in words)” value was “dose-dependent decrease”. For the same molecule, in series [1] (10 μM), the “incidence of arrhythmia-like waveforms: EAD” value came out at 25% and the “incidence … irregular beat” value is 17%. Also, in series [1] (30 μM), the “incidence of arrhythmia-like waveforms: EAD” value is listed as 42%, the “incidence … arrest” value is listed as 17% and the “incidence … irregular beat” value amounted to 8%. Further, in series [1] (100 μM), the “incidence … arrest” value is 100%. In series [2], the “PWD30-80 (in words)” value is reported as “prolonged”, the “PWD80cF (in words)” value is reported as “prolonged”, the “Beat Rate” value is “↓” and the “Falling Slope” value was “↓”. In series [2], the PWD80cF result is listed as “↑”, the “Rising Slope” value was “↓”, the “beating rate (in words)” value is “dose-dependent decrease” and the “falling slope … (in words)” value was “dose-dependent decrease”. The “rising slope … (in words)” value in series [2] is “dose-dependent decrease”. The “incidence … irregular beat” value in series [2] (10 μM) is 11%. For the same molecule, the “irregular beating (samples)” value in series [2] (10 μM, count of samples) is reported as 1 out of 9. Besides, the “incidence … arrest” value in series [2] (30 μM) is on record as 100%. Also, the “incidence … arrest” value in series [2] (100 μM) was determined as 100%.
As for `CC1=C(/C=C/C(C)=C/C=C/C(C)=C/C(=O)O)C(C)(C)CCC1` [RA, retinoic acid], in series [5] (AM (RA-treated hiPS-CMs)), the MLC-2a positive cells was 83.4 ± 0.63% and the MLC-2v positive cells is listed as 14.0 ± 2.82%. The “proportion of cTnT-positive cells” value in series [5] (AM (RA-treated hiPS-CMs), 0.7 μM RA day 4-7, n = 3) was 96.79 ± 1.81% and 96.8 ± 1.81%. Besides, the “cardiomyocyte differentiation efficiency (in words)” value in series [5] (with vs without RA) was “did not influence cardiomyocyte differentiation efficiency”.
Regarding `COc1ccc(CCN(C)CCCC(C#N)(c2ccc(OC)c(OC)c2)C(C)C)cc1OC` (stereo not drawn) [Verapamil], in series [1], the “membrane potential duration (in words)” value is “decreased”, the “Falling Slope” value was “↑”, the PWD30cF result is recorded as “↓” and the PWD80cF result is on record as “↓”. Moreover, in series [1], the “Rising Slope” value is on record as “↓”, the “beating rate (in words)” value is reported as “dose-dependent increases” and the “falling slope … (in words)” value is “dose-dependent increases”. Further, in series [2], the “other parameters of membrane potential (in words)” value is reported as “no obvious changes were observed”, the “Beat Rate” value is recorded as “↑” and the “beating rate (in words)” value is recorded as “dose-dependent increase”. Besides, the “incidence … arrest” value in series [2] (0.1 μM) is given as 100%. For the same molecule, in series [2] (0.1 μM doses), the “cessation of beating (samples)” value was “all the AM samples”. Also, the “arrest of spontaneous beating (samples)” value in series [2] (at the maximal concentration) is on record as “all the tested samples”.
